Measured values reported in patent US20220187282A1, “CARDIOMYOCYTE PROLIFERATION” (The Council of the Queensland Institute of Medical Research, priority 2019, published 2022).

Tested on: adult cardiomyocytes (MLC2v)
Experiment: adult mouse intracardiac injection, BrdU+ cardiomyocytes after fix-dissociation
Format: in vivo
Details: adult mice; for cardiomyocyte DNA synthesis (BrdU+): single dose 10 mg/kg injected into the heart, 3 days
Description: 8-week-old male mice were anesthetized with 4% isoflurane (Bayer) with 0.25 L/min oxygen and then maintained with 2% isoflurane. Once, anaesthetised, each mouse received a s.c. buprenorphine injection (0.05 mg/kg). The animals were intubated and ventilated (Minivent, Harvard Apparatus) (tidal volume=250 respiration rate=133 strokes/min). To access the heart, a lateral thoracotomy was performed at the 4th intercostal space. A Hamilton syringe with a 30-gauge needle was used to inject ˜20 ? l of small molecule solution (final concentration 10 mg/kg) into the myocardium. All compounds were emulsified in Kolliphor/PBS solution (20% Kolliphor® HS 15 (w/v) in PBS, pH 7.4) at a concentration of 20 mg/mL. The chest wall was closed using 4-0 silk suture, the skin closed with 6-0 prolene suture and the mouse removed from anaesthesia. Following anaesthesia, mice were supplied with a s.c. injection of buprenorphine (0.05 mg/kg) and carprofen (10 mg/kg) and allowed to recover. Starting from the day of the surgery, mice received daily 5-bromo-2′-deoxyuridine (BrdU) injections (100 mg/kg, i.p.). […]
Cardiomyocytes were the counted, cytospun onto glass slides and stained with BrdU and MLC2v antibodies, relevant secondary antibodies (see Star Methods Table) and Hoechst (1:1000) to quantify proliferating cardiomyocytes. The AlexaFluor 647 was used to stain BrDU to avoid false positive associated with auto-fluorescence inherent in adult cardiomyocytes in blue-green-yellow channels. To quantify proliferation, 5,000 cardiomyocytes per heart were imaged using a Nikon Spinning Disc confocal microscope using a 20× objective.
Finally, we sought to determine whether compounds 3 and 65 could regulate adult cardiomyocyte proliferation in vivo and whether the mevalonate pathway is critical for these effects. […] Following injection, proliferation was assessed using BrdU pulse-chase for 3 days, followed by fix-dissociation of the hearts, enabling preservation and separation of cardiomyocytes (FIG. 7F) and accurate quantification of BrdU positive cardiomyocytes (FIG. 7G). […]

Compound	DNA synthesis response with simvastatin (10 mg/kg intracardiac plus simvastatin 20 mg/kg s.c. daily)	cardiomyocyte DNA synthesis (BrdU+)
Cc1ccc(NC(=O)c2ccnc(N3CCOCC3)c2)cc1Nc1ccnc(N2CC(C)OC(C)C2)n1 (stereo not drawn) [compound 3]	blocked	significantly increased
Cc1cc(Oc2ccnc(Nc3ccc(S(N)(=O)=O)cc3)c2)c(-c2ccccn2)nc1C [compound 65]		significantly increased
